Experimental data taken from US20200261398A1, “METHOD FOR FIRST-LINE TREATMENT OF ROSACEA” (Sol-Gel Technologies Ltd., priority 2019, published 2020).

Columns and labels:
[1] = test system: patients afflicted with papulopustular rosacea; experiment: Investigator Global Assessment (IGA) success, 12-week vehicle-controlled study of E-BPO 5% cream; assay type: in vivo, human
Protocol: (§1) A multi-center, double-blind, randomized, vehicle-controlled, dose-range study of encapsulated 5% benzoyl peroxide (E-BPO) Cream and vehicle cream was performed to assess the efficacy and safety of E-BPO compared to vehicle. Study duration was 12 weeks and included approximately 350 male and female patients afflicted with papulopustular rosacea. Patients were at least 18 years of age, and met the inclusion/exclusion criteria described herein.
Patients were randomized in a 2:1 ratio to the study product or vehicle treatment group, respectively. […]
Patients were admitted into the study after meeting all inclusion/exclusion criteria, including a clinical diagnosis of rosacea and after written informed consent has been obtained. […] At each visit, a 5-point IGA scale of rosacea; rosacea erythema, and telangiectasia; and inflammatory (papules, pustules) lesion counts were performed and recorded.
(§2) The first application of the test product was applied at the investigational site at the end of the Baseline visit (Day 0) under the supervision and instruction of the designated investigational site staff. […] The evaluator also assessed local application site irritation (dryness, scaling, pruritus, stinging and burning) at Baseline and Weeks 2, 4, 8 and 12 (end of study). […]

[2] = test system: patients afflicted with papulopustular rosacea; experiment: Inflammatory lesion (papules, pustules) count, 12-week vehicle-controlled study of E-BPO 5% cream; assay type: in vivo, human
Protocol: as §1
Patients were randomized in a 2:1 ratio to the study product or vehicle treatment group, respectively. Patients applied the study product once daily for 12 weeks on the face (chin, left cheek, right cheek, nose, left forehead and right forehead) in a thin layer to provide even distribution, and avoid the eyes, lips, inside the nose, mouth and all mucous membranes.
Patients were admitted into the study after meeting all inclusion/exclusion criteria, including a clinical diagnosis of rosacea and after written informed consent has been obtained. Subjects with severe rosacea who are appropriate for systemic treatment need to be counseled regarding their treatment options by the Principal Investigator. At each visit, a 5-point IGA scale of rosacea; rosacea erythema, and telangiectasia; and inflammatory (papules, pustules) lesion counts were performed and recorded.
The first application of the test product was applied at the investigational site at the end of the Baseline visit (Day 0) under the supervision and instruction of the designated investigational site staff. The investigator performed the Investigator Global Assessment (IGA) and inflammatory lesion (papules and pustules) counts at Screening, Baseline, and Weeks 4, 8, and 12 (end of study) and erythema and telangiectasia assessments at Baseline, and Weeks 4, 8, and 12 (end of study). The evaluator also assessed local application site irritation (dryness, scaling, pruritus, stinging and burning) at Baseline and Weeks 2, 4, 8 and 12 (end of study). At selected investigational site(s), standardized photography of facial rosacea also was performed at Baseline and Week 8 and 12 (end of study).
The absolute change (primary measure of success) and percent change (secondary measure of success) from baseline of inflammatory lesions was derived for each patient at Weeks 2, 4, 8 and 12. The IGA was recorded for each patient at Baseline, Weeks 2, 4, 8 and 12. Weeks 2, 4, 8 and 12 with a patient were considered a success for those visits if the IGA was at least 2 grades less than baseline and are Clear or Almost Clear. Data from two sets of experiments—Drug 01+Vehicle 01 and Drug 02+Vehicle 02—are included herewith for each measurement
The proportions of subjects with a secondary measure of success (defined as change in the mean inflammatory lesion count from Baseline to Weeks 2, 4, 8 and 12) are shown in Tables 2A, 2B, 3A and 3B, and FIGS. 2 and 3.

[3] = test system: patients afflicted with papulopustular rosacea; experiment: Cutaneous Safety Assessment (dryness, scaling) and Local Tolerability Assessment (itching, burning/stinging), 12-week study of E-BPO 5% cream; assay type: in vivo, human; conditions: studies described herein
Protocol: Safety was assessed at all visits, and will include monitoring of local adverse experiences, Investigator Cutaneous Safety Assessment rating of dryness and scaling and Local Tolerability Assessment rating of itching and burning/stinging on a scale ranging from 0 (None) to 3 (Severe); patients complete a Patient Reported Outcomes (PRO) questionnaire at Visit 2, 3, 4, 5 and 6 and Rosacea Quality of Life Questionnaire (RosaQoL) at Baseline and Visit 6 or at early termination. Standardized photography of facial rosacea at Visit 2, 3, 4, 5 and 6 was performed at select site(s).
In addition to IGA, at each visit, the following safety measures were recorded: monitoring for any AE (adverse effects) including local and systemic; investigator Cutaneous Safety Assessment rating of erythema, dryness and scaling and Local Tolerability Assessments rating of itching and burning/stinging on a scale ranging from 0 (None) to 3 (Severe).
as §2

rosacea = conditions: BPO as the sole active agent (Gul 2008); cited from earlier work
[4] = after at least 12 weeks of treatment

SMILES: O=C(OOC(=O)c1ccccc1)c1ccccc1 [BPO, Benzoyl peroxide]
- success in IGA ([1]; after 2 weeks of BPO-treatment): about 10%
- success in IGA ([1]; after only 4 weeks of treatment): about 25%
- decrease in inflammatory lesions [2, 4]: over 69%
- decrease in inflammatory lesions relative to effect of vehicle cream [2, 4]: more than 1.5 ×
- decrease in inflammatory lesions, on average ([2]; after only 2 weeks of treatment): about 40%
- decrease in inflammatory lesions ([2]; in 4 weeks): over 58%
- decrease in inflammatory lesions ([2]; in 8 weeks): about 70%
- percentage of patients reporting no subcutaneous reactions compared with vehicle [3]: comparable, and for some conditions, surprisingly, higher
- response of lesions (rosacea): unresponsive
